Data reported in patent US9409944B2, “Compositions and methods for inhibiting proteases” (The Regents of the University of California, priority 2011, dated 2016).

How the values were obtained:
[1] = target: beta 5 subunit (chymotrypsin-like) of the Saccharomyces cerevisiae 20S proteasome (Saccharomyces cerevisiae, UniProt P30656); assay: Inhibition of the beta 5 subunit (chymotrypsin-like) of the 20S proteasome; assay type: biochemical; conditions: S. cerevisiae 20S proteasome, pure compound
Excerpt: (§1) We discovered the new natural products, compounds having formulas 1 and 2, from a collection of marine cyanobacteria obtained from Curaçao in the Netherland Antilles. We were led to isolate this compound from cancer cell toxicity of the extract and semi-purified fractions.

[2] = test system: human lung adenocarcinoma (H460) cells; assay: Cytotoxicity to human lung adenocarcinoma (H460) cells; assay type: cell-based; conditions: NCI-H460
Excerpt: as §1

SMILES	IC50 [1] [nM]	EC50 [2] [nM]
CCCCCC(=O)N[C@H](C(=O)N[C@@H](CC[S+](C)[O-])C(=O)N[C@@H](CC(C)C)C(=O)[C@@]1(C)CO1)C(C)C (mixture of isomers) [Compound 1]	5.3 ± 0.5	14.5
C[C@@]12OC(=O)[C@]1([C@@H](O)[C@@H]1C=CCCC1)NC(=O)[C@@H]2CCCl [salinosporamide A, reference compound]	1.4 ± 0.2	–
